The values that follow are results of earlier work, collected in patent US20190300958A1, “GENETIC POLYMORPHISMS ASSOCIATED WITH VENOUS THROMBOSIS AND STATIN RESPONSE, METHODS OF DETECTION AND USES THEREOF” (Celera Corporation, priority 2010, published 2019).

Molecules are shown by their SMILES.

In one data set the test system is myocyte cultures. The following applies: animal models and myocyte cultures, compared to lipophilic statins.
Data set [1] deals with major cardiovascular events. The following applies: study of 17,802 individuals.

As to `CC[C@H](C)C(=O)O[C@H]1C[C@H](O)C=C2C=C[C@H](C)[C@H](CC[C@@H](O)C[C@@H](O)CC(=O)O)[C@H]21` [Pravastatin, pravastatin], the myopathic potential result with myocyte cultures is listed as “low myopathic potential”. With `CC(C)c1nc(N(C)S(C)(=O)=O)nc(-c2ccc(F)cc2)c1/C=C/[C@@H](O)C[C@@H](O)CC(=O)O` [rosuvastatin], the “incidence of major cardiovascular events” value in data set [1] is given as “significantly reduced”.
